Data on 7 compounds can be found in article PMC5248655 (ACS chemical neuroscience, 2015).

Counter-ions that a name gives are not always drawn. Like-named read-outs stand apart in the source and are kept apart here.

Data set [1] has as its system P-gp. As to the kind of experiment: Western blot of P-gp expression in SCHs. The class given is cell-based, rat. Particulars: 48 h treatment, vs control cells, n = 4. For orientation: A western blot detects proteins with antibodies after separation by electrophoresis.
Data set [2] relates to LRP1. Description: Western blot of LRP1 expression in SCHs. The class given is cell-based, rat. Particulars: 48 h treatment; for increase in LRP1 expression: n = 4.
Data set [3] deals with C57BL/6 wild-type mice. The conditions noted are these: compared to control mice; cited from earlier work.
Data set [4] concerns sandwich-cultured primary rat hepatocytes (SCHs). Particulars: induction of LRP1 and P-gp; cited from earlier work.
For data set [5], the system named is P-gp. The conditions noted are these: 26 day treatment, Western blot, n = 5.
The subject of data set [6] is LRP1. Particulars: 26 day treatment, Western blot, n = 5.
The test system of data set [7] is Sprague–Dawley male rats. The conditions noted are these: n = 5; for hepatic uptake (extravascular extraction, E) of ^125I-Aβ40: absolute value.
In data set [8] the test system is Sprague–Dawley male rats. Description: TCA precipitation assay of Aβ degradation in treated rats. The class given is in vivo, rat. Particulars: rats treated 26 days, data not shown.
The subject of data set [9] is Aβ40. Particulars: rat, in vivo.
Data set [10] deals with LRP1. Description: Western blot of hepatic LRP1 expression in treated rats. The class given is in vivo, rat. Particulars: 26 day treatment, n = 5.
Data set [11] concerns Aβ42. Particulars: rat, in vivo.
Data set [12] relates to LRP1. As to the kind of experiment: Western blot of LRP1 expression in RBE4 cells. The format is cell-based, rat. The conditions noted are these: 5 µM, 48 h, normalized, vs control, n = 4.
In data set [13] the test system is P-gp. Description: Western blot of P-gp expression in RBE4 cells. The format is cell-based, rat. The conditions noted are these: 5 µM, 48 h, normalized, vs control, n = 4.
In data set [14] the test system is P-gp. Description: Western blot of hepatic P-gp expression in treated rats. The class given is in vivo, rat. Particulars: 26 day treatment, n = 5.
The subject of data set [15] is Sprague–Dawley male rats. Description: Brain efflux index. Particulars: 60 min after intracerebral microinjection.

Regarding `COc1ccc2c3c1O[C@H]1C[C@@H](O)C=C[C@@]31CCN(C)C2` [galantamine, Galantamine hydrochloride], in [1], the “increase in P-gp expression” value turned out to be 1.3 fold. The “increase in LRP1 expression” value in data set [2] (vs control cells) is given as 1.2 fold.

On to `CC12CC3CC(C)(C1)CC(N)(C3)C2` [memantine], for which the “effect on LRP1 expression (in words)” value in [2] is listed as “no effect”.

Consider `C/C=C(/C=O)[C@@H](CC=O)CC(=O)OCCc1ccc(O)cc1` [oleocanthal], for which the “increase in brain efflux of exogenously introduced Aβ40” value in data set [3] is 29%.

On to `CO[C@H]1/C=C/O[C@@]2(C)Oc3c(C)c(O)c4c(O)c(c(/C=N/N5CCN(C)CC5)c(O)c4c3C2=O)NC(=O)/C(C)=C\C=C\[C@H](C)[C@H](O)[C@@H](C)[C@@H](O)[C@@H](C)[C@H](OC(C)=O)[C@@H]1C` [rifampicin], for which, in data set [4], the “effect on biliary clearance of ^125I-Aβ (in words)” value was “significantly increased”.

Regarding `CCN(C)C(=O)Oc1cccc([C@H](C)N(C)C)c1` [rivastigmine, rivastigmine L-tartrate], the figures for the “increase in brain P-gp protein expression” value in data set [5] (aged rats) and in [5] (young rats) were 20% and 36%, respectively. Moreover, the “increase in P-gp expression” value in data set [1] was 1.3 fold; in [13], “approximately 1.7 fold”. Also, the “increase in LRP1 expression” value in data set [2] (vs control cells) is on record as 1.7 fold; in [12], “approximately 1.7 fold”. Moreover, the figures for the “increase in brain LRP1 protein expression” value in data set [6] (aged rats) and in [6] (young rats) were 56% and 42%, respectively. Further, the “hepatic uptake (extravascular extraction, E) of ^125I-Aβ40” value in data set [7] (aged rats, 26 day treatment, mean ± SEM) was 64.0 ± 4.9%; in [7] (young rats, 26 day treatment, mean ± SEM), 64 ± 3.7%. The “increase in hepatic uptake of ^125I-Aβ40” value in [7] (aged rats, 26 day treatment, vs vehicle-treated rats of the same age) came out at 119%. In addition, in data set [8], the “effect on Aβ degradation” value was “no effect”. For the same compound, the “reduction of total brain Aβ40 level” value in data set [9] is reported as “approximately 52%”. Besides, the “total Aβ40 level in brain” value in [9] was found to be 1713 ± 260 pmol/g brain tissue. Also, the figures for the “increase in liver LRP1 expression” value in data set [10] (aged rats) and in data set [10] (young rats) were 88% and 41%, respectively. Besides, the “reduction of total brain Aβ42 level” value in [11] was “approximately 52%”. In addition, in data set [11], the “reduction trend in brain Aβ42 levels (in words)” value is “not statistically significant”. In [11], the “total Aβ42 level in brain” value came to 466 ± 67 pmol/g brain tissue. Moreover, the “increase in liver P-gp expression” value in data set [14] (aged rats) is listed as 81%; in [14] (young rats) it was 47%.

Consider `Nc1c2c(nc3ccccc13)CCCC2` [tacrine, Tacrine hydrochloride], for which the “down-regulation of LRP1 expression” value in data set [2] (vs control cells) was 20%.

Consider ^125I-Aβ40, for which the “reduction of extravascular extraction (E) in aged compared to young rats” value in [7] (aged (24 months) vs young (4 months) rats) was 44%. In addition, the “extravascular extraction or hepatic uptake of ^125I-Aβ40” value in data set [7] (vehicle-treated young rats, single pass into the portal vein, 18 s, mean ± SEM) worked out at 51.9 ± 2.4%. Besides, the “^125I-Aβ40 BEI%” value came out at 47% in [15] (vehicle-treated aged rats (24 months)) and 59% in [15] (vehicle-treated young rats (4 months)).
